This data set is described as follows: Comparative in vitro release of Oligo-3 and Oligo-4 from gold nanoparticles with glutathione, followed by fluorescence. The settings on record: PBS, glutathione final concentration 1 mM, Ex: 470, Em: 517 nm. The method, then: To a solution of modified gold nanoparticles prepared in Example 9 in PBS bearing the Oligo-3 or Oligo-4 was added glutathione (final concentration 1 mM). The in vitro release of the oligonucleotides bearing the fluorescein molecule is followed by fluorescence. The fluorescence was recorded at different periods of time. […] Particularly, in the case of Oligo-3, the fluorescence increases fast due to the release of the oligonucleotide from the gold nanoparticle in the presence of glutathione at 1 mM. The fluorescence is quenched when fluorescein is close to the gold nanoparticle, but it increases over time due to the release of the fluorescent oligonucleotide in the presence of glutathione. […] Ex: 470, Em: 517 nm.

From patent US20160075680A1, “MODIFIED SOLID SUPPORT FOR THE SYNTHESIS OF OLIGONUCLEOTIDES” (FUNDACIÓN IMDEA NANOCIENCIA, priority 2013, published 2016) come the findings set out here.

Consider “Oligo-3: TTTTTTTTTT (SEQ ID NO: 3), fluorescein at position 5′ and the modification herein reported at position 3′ (5' fluorescein; 3' modification; Oligonucleotide sequence as in Oligo-3 and Oligo-4)”, for which the “in vitro release of the fluorescein oligonucleotide from gold nanoparticles” value is “release takes place efficiently”.

With “Oligo-4: TTTTTTTTTT (SEQ ID NO: 3), fluorescein at 5′, dithiolane group at 3′ but not the disulfide group; comparative (5' fluorescein; 3' dithiolane; Oligonucleotide sequence as in Oligo-3 and Oligo-4)”, the “in vitro release of the fluorescein oligonucleotide from gold nanoparticles” value is “inefficient release”.
